Values of other authors in patent publication US20220333169A1, “Polygenic Score for Cardiac Heart Failure” (Henry Ford Health System, priority 2019, published 2022).

Test system: heart failure patients
Conditions: one randomized clinical trial

COc1ccccc1OCCNCC(O)COc1cccc2[nH]c3ccccc3c12 (stereo not shown) [carvedilol]
95% confidence interval for change in left ventricular ejection fraction (LVEF): −11.1 to +32.9
